Assay results taken from patent US11666558B2, “Methods of treating intraocular pressure with activators of Tie-2” (EyePoint Pharmaceuticals, Inc., priority 2015, dated 2023).
Values joined by “and” are separate entries in the source; they are usually repeats but may differ in a detail not shown here. Equal values may be shown once. Where a name gives a salt, the structure may show the parent alone.

Assays:
[1] = Ophthalmic examination (slit-lamp biomicroscopy, modified McDonald-Shadduck Scoring System) after repeated dosing; format: in vivo, New Zealand White rabbits
Method: Prior to placement on study, each animal underwent an ophthalmic examination (slitlamp biomicroscopy and indirect ophthalmoscopy). Ocular findings were scored according to a modified McDonald-Shadduck Scoring System and recorded on a standardized data sheet. The acceptance criteria for placement on study were scores of “0” for all variables.
Ophthalmic examination (slit-lamp biomicroscopy only) was performed at baseline (prior to the start of dosing) and on Days 1, 4, and 8. Ocular findings were scored according to a modified McDonald-Shadduck Scoring System. A slit lamp was used to observe conjunctival discharge, […], […], the cornea, the surface area of cornea involvement, pannus, pupillary response, aqueous flare, cellular flare, iris involvement, and the lens. An indirect ophthalmoscope was used to observe the vitreous, vitral hemorrhage, retinal detachment, retinal hemorrhage, and choroidal/retinal inflammation. Animals were prepared for observation by using a solution (atropine, tropicaminde, or phenylephrine) to dilate the pupils.
Conjunctival discharge was defined as a whitish gray precipitate from the eye. Scoring was as follows.
Conjunctival congestion causes the blood vessels of the eye to become enlarged. Scoring was as follows.
Conjunctival swelling, defined as swelling of the conjunctiva, was scored as follows.

[2] = test system: intraocular pressure; assay: Intraocular pressure (pneumotonometer) after repeated topical and subcutaneous administration in normotensive rabbits; format: in vivo, New Zealand White rabbits
Method: To measure the tolerability and effect of Compound 1 (sodium salt) on intraocular pressure following repeated topical and subcutaneous administration, normotensive New Zealand White rabbits were treated with Compound 1 (sodium salt). Animals were acclimated 1 to 2 times per day to the intraocular pressure (IOP) measurement procedures prior to initiation of the study to determine baseline IOP levels. IOP acclimation was performed in the two weeks prior to study start for a total of 5 days. Animals with unacceptable IOP values were excluded from the study. Prior to taking all IOP measurements, 1 to 2 drops of a 0.5% proparacaine solution were applied to the eye as a topical anesthetic. OP measurements were performed with a pneumotonometer. Test and control formulations were administered to the animals once or twice daily topically into both eyes or subcutaneously starting on Day 1 according to TABLE 20 and TABLE 21 below. PM dosing, where applicable, was performed ˜8 hours after AM dosing. IOP measurements were performed twice (AM and PM) at baseline (prior to the start of dosing), twice (AM and PM) on Days 1 and 7, and once daily (AM) on Days 2-6 and Day 8. Prior to taking all IOP measurements, 1 to 2 drops of a 0.5% proparacaine solution were applied to the eye as a topical anesthetic. IOP measurements were performed with a pneumotonometer. AM IOP measurements were performed 2 hours after AM dosing; the only exceptions were Day 8 AM measurements, which were performed 24 hours after the final dose. PM IOP measurements were performed ˜5 hours (baseline and Day 1) or ˜4 hours (Day 7) after AM IOP measurements, prior to PM dosing, with at least 15 minutes elapsing between anesthetic application for PM IOP measurements and PM dosing. The final round of slit-lamp examinations was performed on Day 8.

[3] = Group 2, 0.45 mg/eye topical BID, Day 1, AM, OS
[4] = Group 2, 0.45 mg/eye topical BID, Day 1, PM, OD
[5] = Group 2, 0.45 mg/eye topical BID, Day 2, AM, OD
[6] = Group 2, 0.45 mg/eye topical BID, Day 2, AM, OS
[7] = Group 2, 0.45 mg/eye topical BID, Day 3, AM, OD
[8] = Group 2, 0.45 mg/eye topical BID, Day 3, AM, OS
[9] = Group 2, 0.45 mg/eye topical BID, Day 4, AM, OD
[10] = Group 2, 0.45 mg/eye topical BID, Day 4, AM, OS
[11] = Group 2, 0.45 mg/eye topical BID, Day 5, AM, OD
[12] = Group 3, 1.2 mg/eye topical BID, Day 1, AM, OD
[13] = Group 3, 1.2 mg/eye topical BID, Day 1, AM, OS
[14] = Group 3, 1.2 mg/eye topical BID, Day 1, PM, OD
[15] = Group 3, 1.2 mg/eye topical BID, Day 2, AM, OS
[16] = Group 3, 1.2 mg/eye topical BID, Day 3, AM, OD
[17] = Group 3, 1.2 mg/eye topical BID, Day 3, AM, OS
[18] = Group 3, 1.2 mg/eye topical BID, Day 4, AM, OD
[19] = Group 3, 1.2 mg/eye topical BID, Day 4, AM, OS
[20] = Group 3, 1.2 mg/eye topical BID, Day 5, AM, OS
[21] = Group 4, 1.2 mg/eye topical QD, Day 1, AM, OD
[22] = Group 4, 1.2 mg/eye topical QD, Day 2, AM, OD
[23] = Group 4, 1.2 mg/eye topical QD, Day 5, AM, OD

## COC(=O)N[C@@H](Cc1ccccc1)C(=O)N[C@@H](Cc1ccc(NS(=O)(=O)O)cc1)c1csc(-c2cccs2)n1 [Compound 1 sodium salt]
[1]; Group 2, 0.45 mg/eye topical BID, Day 1
  mild conjunctival congestion (scores=1), animals affected: all five animals
[1]; Group 2, 0.45 mg/eye topical BID, Day 4
  mild conjunctival congestion (scores=1), animals affected: two animals
[1]; Group 3, 1.2 mg/eye topical BID, Day 1
  mild conjunctival congestion (scores=1), animals affected: two animals
[1]; Group 3, 1.2 mg/eye topical BID, Day 4
  mild conjunctival congestion (scores=1), animals affected: two animals
[1]; Group 4, 1.2 mg/eye topical QD, Day 1
  mild conjunctival congestion (scores=1), animals affected: one animal
[1]; Group 4, 1.2 mg/eye topical QD, Day 4
  mild conjunctival congestion (scores=1), animals affected: one animal
[1]; Group 5, 10 mg/kg subcutaneous BID, Day 1
  mild conjunctival congestion (scores=1), animals affected: three animals
[1]; Group 5, 10 mg/kg subcutaneous BID, Day 4
  mild conjunctival congestion (scores=1), animals affected: none
[1]; all groups, Day 8
  ocular anomalies: No ocular anomalies
[1]; repeated topical and subcutaneous dosing
  relation of mild conjunctival congestion to the test article: appeared to be unrelated to the test article
[2]; Group 2, 0.45 mg/eye topical BID, Day 1, AM, OD
  Intraocular pressure (IOP), individual animal: 20.3 and 23.7 and 24.0 and 20.7 and 21.7
[2]; [3]
  Intraocular pressure (IOP), group Average: 23.3
  Intraocular pressure (IOP), individual animal: 20.7 and 25.2 and 23.3
[2]; [4]
  Intraocular pressure (IOP), group Average: 25.5
  Intraocular pressure (IOP), individual animal: 24.8 and 22.0
[2]; Group 2, 0.45 mg/eye topical BID, Day 1, PM, OS
  Intraocular pressure (IOP), individual animal: 25.3
[2]; [5]
  Intraocular pressure (IOP), group Average: 21.9
  Intraocular pressure (IOP), individual animal: 22.0 and 22.7 and 25.0
[2]; [6]
  Intraocular pressure (IOP), group Average: 22.2
  Intraocular pressure (IOP), individual animal: 22.3 and 24.3
[2]; [7]
  Intraocular pressure (IOP), group Average: 24.0
  Intraocular pressure (IOP), individual animal: 25.0 and 24.2 and 26.0 and 23.8
[2]; [8]
  Intraocular pressure (IOP), group Average: 24.5
  Intraocular pressure (IOP), individual animal: 25.3 and 23.5 and 26.0 and 23.0
[2]; [9]
  Intraocular pressure (IOP), group Average: 23.9
  Intraocular pressure (IOP), individual animal: 23.8 and 22.0 and 26.7 and 25.7
[2]; [10]
  Intraocular pressure (IOP), group Average: 24.3
  Intraocular pressure (IOP), individual animal: 23.0 and 22.7 and 26.3 and 23.5 and 26.2
[2]; [11]
  Intraocular pressure (IOP), group Average: 25.2
  Intraocular pressure (IOP), individual animal: 22.8 and 28.0 and 20.7 and 25.7
[2]; Group 2, 0.45 mg/eye topical BID, Day 5, AM, OS
  Intraocular pressure (IOP), individual animal: 25.0 and 28.0 and 24.2 and 26.3
[2]; Group 2, 0.45 mg/eye topical BID, Day 6, AM, OD
  Intraocular pressure (IOP), group Average: 25.5
[2]; Group 2, 0.45 mg/eye topical BID, Day 7, AM, OD
  Intraocular pressure (IOP), group Average: 23.7
[2]; Group 2, 0.45 mg/eye topical BID, Day 7, AM, OS
  Intraocular pressure (IOP), group Average: 24.5
[2]; [12]
  Intraocular pressure (IOP), group Average: 22.0
  Intraocular pressure (IOP), individual animal: 23.2 and 24.0 and 20.2
[2]; [13]
  Intraocular pressure (IOP), group Average: 23.2
  Intraocular pressure (IOP), individual animal: 23.8 and 23.0 (2×)
[2]; [14]
  Intraocular pressure (IOP), group Average: 24.1
  Intraocular pressure (IOP), individual animal: 24.7 and 25.2
[2]; Group 3, 1.2 mg/eye topical BID, Day 1, PM, OS
  Intraocular pressure (IOP), individual animal: 24.5 (2×) and 23.7 and 25.0
[2]; Group 3, 1.2 mg/eye topical BID, Day 2, AM, OD
  Intraocular pressure (IOP), individual animal: 17.5 and 25.5
[2]; [15]
  Intraocular pressure (IOP), group Average: 21.2
  Intraocular pressure (IOP), individual animal: 20.2 and 24.0 and 24.5
[2]; [16]
  Intraocular pressure (IOP), group Average: 20.7
  Intraocular pressure (IOP), individual animal: 20.0 and 23.0 and 22.2
[2]; [17]
  Intraocular pressure (IOP), group Average: 21.2
  Intraocular pressure (IOP), individual animal: 20.0 and 22.7 and 23.0
[2]; [18]
  Intraocular pressure (IOP), group Average: 22.8
  Intraocular pressure (IOP), individual animal: 23.2 and 24.8 and 22.2
[2]; [19]
  Intraocular pressure (IOP), group Average: 23.2
  Intraocular pressure (IOP), individual animal: 23.3 and 24.2 and 24.5 and 22.3
[2]; Group 3, 1.2 mg/eye topical BID, Day 5, AM, OD
  Intraocular pressure (IOP), individual animal: 21.5 and 23.7
[2]; [20]
  Intraocular pressure (IOP), group Average: 22.0
  Intraocular pressure (IOP), individual animal: 22.3 and 23.5
[2]; Group 3, 1.2 mg/eye topical BID, Day 6, AM, OS
  Intraocular pressure (IOP), group Average: 24.7
[2]; Group 3, 1.2 mg/eye topical BID, Day 7, AM, OS
  Intraocular pressure (IOP), group Average: 22.0
[2]; Group 3, 1.2 mg/eye topical BID, Day 7, PM, OD
  Intraocular pressure (IOP), group Average: 23.7
[2]; Group 3, 1.2 mg/eye topical BID, over the course of dosing
  IOP values compared to Group 1 (Vehicle): lower IOP values
[2]; [21]
  Intraocular pressure (IOP), group Average: 21.2
  Intraocular pressure (IOP), individual animal: 22.0 and 20.2
[2]; Group 4, 1.2 mg/eye topical QD, Day 1, AM, OS
  Intraocular pressure (IOP), individual animal: 22.0 and 23.3 and 21.2
[2]; Group 4, 1.2 mg/eye topical QD, Day 1, PM, OD
  Intraocular pressure (IOP), individual animal: 21.3 and 24.0
[2]; Group 4, 1.2 mg/eye topical QD, Day 1, PM, OS
  Intraocular pressure (IOP), individual animal: 22.5 and 25.5
[2]; [22]
  Intraocular pressure (IOP), group Average: 20.0
  Intraocular pressure (IOP), individual animal: 20.0 and 20.3
[2]; Group 4, 1.2 mg/eye topical QD, Day 2, AM, OS
  Intraocular pressure (IOP), individual animal: 21.0
[2]; Group 4, 1.2 mg/eye topical QD, Day 3, AM, OD
  Intraocular pressure (IOP), individual animal: 23.5 and 21.0
[2]; Group 4, 1.2 mg/eye topical QD, Day 3, AM, OS
  Intraocular pressure (IOP), individual animal: 20.0 and 21.2
[2]; Group 4, 1.2 mg/eye topical QD, Day 4, AM, OD
  Intraocular pressure (IOP), individual animal: 21.5 and 22.2 and 20.7
[2]; Group 4, 1.2 mg/eye topical QD, Day 4, AM, OS
  Intraocular pressure (IOP), individual animal: 20.0 and 24.3 and 23.5
[2]; [23]
  Intraocular pressure (IOP), group Average: 21.0
  Intraocular pressure (IOP), individual animal: 23.8
[2]; Group 4, 1.2 mg/eye topical QD, Day 5, AM, OS
  Intraocular pressure (IOP), individual animal: 22.7 and 22.0
[2]; Group 4, 1.2 mg/eye topical QD, Day 7, AM, OS
  Intraocular pressure (IOP), group Average: 23.0
[2]; Group 4, 1.2 mg/eye topical QD, over the course of dosing
  IOP values compared to Group 1 (Vehicle): lower IOP values
[2]; Group 5, 10 mg/kg subcutaneous BID
  IOP values compared to Group 1 (Vehicle): Lower IOP values compared to Group 1 were also seen in the early part of the study
[2]; Group 5, 10 mg/kg subcutaneous BID, Day 2, AM, OD
  Intraocular pressure (IOP), group Average: 21.5
[2]; Group 5, 10 mg/kg subcutaneous BID, Day 3, AM, OD
  Intraocular pressure (IOP), group Average: 20.7
[2]; Group 5, 10 mg/kg subcutaneous BID, Day 3, AM, OS
  Intraocular pressure (IOP), group Average: 21.3
[2]; Group 5, 10 mg/kg subcutaneous BID, Day 4, AM, OD
  Intraocular pressure (IOP), group Average: 21.9
[2]; Group 5, 10 mg/kg subcutaneous BID, Day 6, AM, OD
  Intraocular pressure (IOP), group Average: 24.5
[2]; Group 5, 10 mg/kg subcutaneous BID, Day 6, AM, OS
  Intraocular pressure (IOP), group Average: 25.0
[2]; Group 5, 10 mg/kg subcutaneous BID, Day 7, AM, OS
  Intraocular pressure (IOP), group Average: 23.9
[2]; Group 5, 10 mg/kg subcutaneous BID, Day 7, PM, OD
  Intraocular pressure (IOP), group Average: 24.1
[2]; Group 5, 10 mg/kg subcutaneous BID, Day 8, AM, OS
  Intraocular pressure (IOP), group Average: 24.0
[2]; Groups 3 and 4 (1.2 mg/eye topical BID, QD), Day 7 and Day 8 (24 hours after the end of dosing)
  apparent reduction in intraocular pressure values: persisted
[2]; topically administered, 1.2 mg/eye dose, QD or BID
  effect on intraocular pressure: observed to reduce intraocular pressure
